Data on six compounds can be found in ChEMBL document CHEMBL6127081, “Peptide inhibitors targeting Ras and Ras-associated protein-protein interactions” (Eur J Med Chem, 2024).

Experiment [1] deals with T1, GTPase HRas (Homo sapiens, UniProt P01112). Description: Binding affinity to wild-type H-Ras (unknown origin) assessed as dissociation constant by fluorescence polarization assay.
Experiment [2] deals with GTPase KRas (Homo sapiens, UniProt P01116, G12D). Description: Inhibition of KRas G12D mutant (unknown origin) by fluorescence polarization assay. In general terms: In fluorescence polarisation assays a small probe gives low polarisation when free and higher when bound to something large.
In experiment [3] the target is T2, GTPase KRas (Homo sapiens, UniProt P01116, G12V). Description: Inhibition of KRas G12V mutant (unknown origin) by fluorescence polarization assay.
Experiment [4] concerns the target T3, GTPase KRas (Homo sapiens, UniProt P01116). Description: Inhibition of recombinant wild-type KRas (unknown origin) by fluorescence polarization assay.
The target of experiment [5] is T4, GTPase KRas (Homo sapiens, UniProt P01116, G12C). Description: Inhibition of KRas G12C mutant (unknown origin) by fluorescence polarization assay.
The target in experiment [6] is GTPase KRas (Homo sapiens, UniProt P01116, G12S). Description: Inhibition of KRas G12S mutant (unknown origin) by fluorescence polarization assay.
Experiment [7] is described as follows: Inhibition of KRas Q61H mutant (unknown origin) by fluorescence polarization assay. Also on record: species or system Homo sapiens.
Experiment [8] deals with T5, SOS1-KRAS (Homo sapiens, UniProt P01116). Briefly: Binding affinity to his-tagged N-terminal GDP-bound KRas (1 to 166 residues)/his-tagged catalytic domain SOS (564 to 1049 residues) (unknown origin) interaction extracted from Escherichia coli (BL21) assessed as dissociation constant by fluorescence polarization assay. The format is protein-complex assay.
Experiment [9] addresses T5, SOS1-KRAS. Briefly: Inhibition of his-tagged N-terminal GDP-bound KRas (1 to 166 residues)/his-tagged catalytic domain SOS (564 to 1049 residues) (unknown origin) interaction extracted from Escherichia coli (BL21) by fluorescence based spectroflurometric analysis. The format is protein-complex assay.
The target in experiment [10] is T5, SOS1-KRAS. Briefly: Binding affinity to his-tagged N-terminal KRas (1 to 166 residues)/his-tagged catalytic domain SOS (564 to 1049 residues) (unknown origin) interaction extracted from Escherichia coli (BL21) assessed as dissociation constant by fluorescence polarization assay. The experiment is classed as protein-complex assay.
For experiment [11], the target named is SOS1-KRAS (Homo sapiens, UniProt P01116, G12D). Briefly: Inhibition of KRAS G12D mutant/SOS1 (unknown origin) interaction by TR-FRET assay. The experiment is classed as protein-complex assay. (In TR-FRET formats the signal depends on donor and acceptor labels being close together.)
The target in experiment [12] is Epidermal growth factor receptor (Homo sapiens) (UniProt P00533). Briefly: Inhibition of EGFR in human NCI-H1299 cells assessed as inhibition in Akt phosphorylation relative to control. Conditions: concentration not given here. The experiment is classed as cell-based.
The target in experiment [13] is T3, GTPase KRas. Briefly: Binding affinity to KRas (unknown origin) assessed as apparent dissociation constant by fluorescence anisotropy analysis. Conditions: read-out: Kd(app).
For experiment [14], the target named is Epidermal growth factor receptor (Homo sapiens) (UniProt P00533). Description: Inhibition of EGFR in human NCI-H1299 cells assessed as inhibition in MEK phosphorylation relative to control. The format is cell-based. The note with it: concentration not given here.
For experiment [15], the target named is GTPase KRas/RAF1 (Homo sapiens, UniProt P01116). Briefly: Inhibition of KRAS/RAF interaction (unknown origin). The experiment is classed as protein assay.
In experiment [16] the target is T2, GTPase KRas. Description: Binding affinity to KRas G12V mutant (unknown origin) assessed as apparent dissociation constant by fluorescence anisotropy analysis. Conditions: read-out: Kd(app).
The nature of experiment [17]: Binding affinity to GDP bound RAF (unknown origin) assessed as dissociation constant. More on the design: species or system Homo sapiens.
Experiment [18] concerns NCI-H358. Description: Cytotoxicity against human NCI-H358 cells measured after 36 hrs by CCK-8 method. The experiment is classed as functional, cell-based. The note with it: NCI-H358, 36 h. For orientation: Formazan colour is commonly taken as a measure of viable cells.
The target of experiment [19] is T4, GTPase KRas. Briefly: Binding affinity to KRas G12C mutant (unknown origin) assessed as dissociation constant by biolayer interferometry assay.
In experiment [20] the test system is NCI-H358. Briefly: Cytotoxicity against human NCI-H358 cells measured after 48 hrs by CCK-8 method. The format is functional, cell-based. Conditions: NCI-H358, 48 h.
Experiment [21] relates to NCI-H358. Description: Cytotoxicity against human NCI-H358 cells measured after 72 hrs by CCK-8 method. The format is functional, cell-based. The note with it: NCI-H358, 72 h.
The test system of experiment [22] is NCI-H358. Description: Cytotoxicity against human NCI-H358 cells measured after 24 hrs by CCK-8 method. The format is functional, cell-based. Conditions: NCI-H358, 24 h.
Experiment [23] deals with T1, GTPase HRas. Description: Binding affinity to HRas (unknown origin) assessed as dissociation constant.
Experiment [24] deals with T3, GTPase KRas. Briefly: Binding affinity to KRas (unknown origin) assessed as dissociation constant.

As usually defined, the pKd is −log10 of the Kd, conventionally taken in molar units. Usually pIC50 stands for −log10 of the IC50, conventionally taken in molar units. The term inhibition denotes the relative decrease from the control value, in per cent.

pIC50, pKd: −log10 of the molar value. Where a SMILES comes first, the peptide text is derived from it. Bridges are numbered along the chain shown (N, C = ends). [ ]: non-standard residue; d: D form. hArg = N=C(N)NCCCC[C@H](N)C(=O)O; S5 = C=CCCC[C@](C)(N)C(=O)O

Regarding `C=CS(=O)(=O)NCCCC(=O)NCCCC[C@H](NC(=O)[C@H](CC(C)C)NC(=O)C[C@@H](CC(=O)O)NC(=O)[C@H](CC(C)C)NC(=O)[C@H](CCCNC(=N)N)NC(=O)[C@H](Cc1ccc(O)cc1)NC(=O)CC(C)(CC)NC(=O)CN1C/C=C\CCCC(=O)N[C@@H](Cc2ccccc2)C(=O)N[C@@H](CCC(=O)O)C1=O)C(=O)N[C@@H](CCCCN)C(=O)NCCC(=O)N[C@@H](CCC(=O)O)C(=O)N[C@@H](CCC(=O)O)C(=O)N[C@@H](C)C(=O)N[C@@H](CC(N)=O)C(N)=O` (stereo not given in full), the negative logarithm of the Kd (pKd) in experiment [1] was 5.39.

Take `CC[C@H](C)[C@H](NC(=O)CNC(=O)[C@H](Cc1ccccc1)NC(=O)[C@H](Cc1ccccc1)NC(=O)[C@H](CCCNC(=N)N)NC(=O)[C@H](CCCNC(=N)N)NC(C)=O)C(=O)N[C@@]1(C)CCC/C=C\CCC[C@@](C)(C(=O)N[C@@H](CC(C)C)C(=O)N[C@@H](CCCCN)C(=O)N[C@H](C(=O)N[C@@H](CCC(=O)O)C(=O)N[C@@H](CCC(=O)O)C(=O)NCC(=O)N[C@@H](CC(N)=O)C(N)=O)[C@@H](C)O)NC(=O)[C@H](CC(N)=O)NC(=O)[C@H]([C@@H](C)O)NC(=O)[C@H](CC(C)C)NC1=O`: the pIC50 in [2], in experiment [3], in experiment [4], in [5], in experiment [6] and in experiment [7] was 5.30 each time.

In the case of `CC[C@H](C)[C@H](NC(=O)CN1C/C=C\CCC(=O)N[C@@H](Cc2ccccc2)C(=O)N[C@@H](CCC(=O)O)C1=O)C(=O)N[C@@H](Cc1ccc(O)cc1)C(=O)N[C@@H](CCCNC(=N)N)C(=O)N[C@@H](CC(C)C)C(=O)N[C@@H](CCC(=O)O)C(=O)N[C@@H](CC(C)C)C(=O)N[C@@H](CC(C)C)C(=O)N[C@@H](CCCCN)C(=O)N[C@@H](C)C(=O)N[C@@H](CCC(=O)O)C(=O)N[C@@H](CCC(=O)O)C(=O)N[C@@H](C)C(=O)N[C@@H](CC(N)=O)C(N)=O`, the negative-log Kd (pKd) in [8] was 3.80; in experiment [10], 4.55. Also, the results for the pIC50 in [9] and in [11] were 5.16 and 6.19, respectively.

As to `CC[C@H](C)[C@@H]1NC(=O)[C@H](Cc2cn(CCc3c(C)[nH]c4cc(Cl)cc(Cl)c34)nn2)NC(=O)[C@H](CC(N)=O)NC(=O)[C@H](CCCNC(=N)N)NC(=O)[C@H](Cc2ccccc2)NC(=O)[C@H](CC(C)C)NC(=O)[C@H](C)NC(=O)c2cc3cc(c2)C(=O)NC[C@@H](C(N)=O)NC(=O)[C@H](CCCNC(=N)N)NC(=O)[C@H](CCCNC(=N)N)NC(=O)[C@H](CCCNC(=N)N)NC(=O)[C@H](CCCNC(=N)N)NC(=O)[C@H](Cc2ccc4ccccc4c2)NC(=O)[C@H](Cc2ccccc2)NC(=O)[C@H](CCCCNC3=O)NC1=O`, the results for the inhibition in [12] and in [14] were 60% and 50%, respectively. For the same compound, the pKd in experiment [13] was 6.68; in experiment [16], 4.77; in experiment [17], 6.43. In experiment [15], this compound showed a pIC50 of 5.47.

On to `CC[C@H](C)[C@H](NC(=O)CNC(=O)[C@H](Cc1ccccc1)NC(C)=O)C(=O)N[C@@]1(C)CCC/C=C\CCC[C@@](C)(C(=O)N[C@@H](CC(C)C)C(=O)N[C@@H](CCCCN)C(=O)N[C@H](C(N)=O)[C@@H](C)O)NC(=O)[C@H](CC(N)=O)NC(=O)[C@H]([C@@H](C)O)NC(=O)[C@H](CC(C)C)NC1=O` (Ac-FGI[S5]LTN[S5]LKT-NH2; staple (Z) 4-8), for which the negative-log IC50 (pIC50) in experiment [18] was 5.12; in experiment [20] it was 5.24; in experiment [21] it was 5.18; in [22] it was 4.80. Moreover, in experiment [19], the pKd was 5.12.

On to `CC[C@H](C)[C@H](NC(=O)[C@H](Cc1c[nH]c2ccccc12)NC(C)=O)C(=O)NCC(=O)N[C@@H](CCCNC(=N)N)C(=O)N[C@@H](CC(C)C)C(=O)N[C@@H](CC(C)C)C(=O)N[C@H](C(=O)N[C@@]1(C)CCC/C=C\CCC[C@@](C)(C(=O)N[C@@H](CCCNC(=N)N)C(=O)N[C@@H](CC(N)=O)C(=O)NCC(=O)N[C@@H](CC(N)=O)C(N)=O)NC(=O)[C@H](CC(C)C)NC(=O)[C@H](CCCCNC(=N)N)NC(=O)[C@H](CCCNC(=N)N)NC1=O)[C@@H](C)O` (Ac-WIGRLLT[S5]R[hArg]L[S5]RNGN-NH2; staple (Z) 8-12), for which the negative logarithm of the Kd (pKd) in experiment [23] and in [24] was 5.41 in each case. In experiment [11], this compound showed a negative-log IC50 (pIC50) of 7.80.
